Test results from PubChem BioAssay AID1745844 (Carcinogenic Potency Database (CPDB), 2022).
Several values for one entry are separate records, joined by “and”; a condition that tells them apart may be missing. Equal values may be shown once. Activity calls are given as the source filed them. How the calls were made is not given here.

Test system: rodent lifetime carcinogenesis bioassay, tumor incidence TD50
Assay: carcinogenic potency in animals, long-term in vivo studies, CPDB compilation (AID 1745844)

SMILES: O=NO
- TD50 (hamster, strain Syrian Golden, females, in feed, site: any site (literature study), lesion: one or several types, types not named, dosed 97 weeks, study length 97 weeks): 477 mg/kg/day
- TD50 (mouse, strain B6C3F1, females, in drinking water, site: any site (literature study), lesion: several types, types named in the paper, dosed 104 weeks, study length 104 weeks): 459 mg/kg/day
- TD50 (mouse, strain B6C3F1, females, in drinking water, site: forestomach, lesion: squamous-cell carcinoma + squamous-cell papilloma, dosed 104 weeks, study length 104 weeks): 1610 mg/kg/day
- TD50 (mouse, strain B6C3F1, females, in drinking water, site: lung, lesion: alveolar/bronchiolar adenoma + alveolar/bronchiolar carcinoma, dosed 104 weeks, study length 104 weeks): 843 mg/kg/day
- TD50 (mouse, strain B6C3F1, males, in drinking water, site: any site (literature study), lesion: several types, types named in the paper, dosed 104 weeks, study length 104 weeks): 9190 mg/kg/day (inactive)
- TD50 (mouse, strain B6C3F1, males, in drinking water, site: lung, lesion: alveolar/bronchiolar adenoma + alveolar/bronchiolar carcinoma, dosed 104 weeks, study length 104 weeks): 990 mg/kg/day
- carcinogen call (mouse, strain C57BL/6, females, in drinking water, site: liver, lesion: several types, types named in the paper, dosed 117 weeks, study length 126 weeks): negative (inactive)
- TD50 (mouse, strain C57BL/6, females, in drinking water, site: lung, lesion: one or several types, types not named, dosed 117 weeks, study length 126 weeks): 5200 mg/kg/day (inactive)
- carcinogen call (mouse, strain C57BL/6, females, in feed, site: any site (literature study), lesion: several types, types named in the paper, dosed 52 weeks, study length 69 weeks): negative (inactive)
- carcinogen call (mouse, strain C57BL/6, females, in feed, site: liver, lesion: hepatocellular carcinoma, dosed 52 weeks, study length 69 weeks): negative (inactive)
- carcinogen call (mouse, strain C57BL/6, females, in feed, site: lung, lesion: adenoma, dosed 52 weeks, study length 69 weeks): negative (inactive)
- TD50 (mouse, strain C57BL/6, males, in feed, site: any site (literature study), lesion: several types, types named in the paper, dosed 52 weeks, study length 69 weeks): 1210 mg/kg/day (inactive)
- carcinogen call (mouse, strain C57BL/6, males, in feed, site: liver, lesion: hepatocellular carcinoma, dosed 52 weeks, study length 69 weeks): negative (inactive)
- TD50 (mouse, strain C57BL/6, males, in feed, site: lung, lesion: adenoma, dosed 52 weeks, study length 69 weeks): 1610 mg/kg/day (inactive)
- carcinogen call (mouse, strain ICR/Jcl, females, in drinking water, site: any site (literature study), lesion: several types, types named in the paper, dosed 109 weeks, study length 109 weeks): negative (inactive)
- carcinogen call (mouse, strain ICR/Jcl, females, in drinking water, site: liver, lesion: one or several types, types not named, dosed 109 weeks, study length 109 weeks): negative (inactive)
- TD50 (mouse, strain ICR/Jcl, females, in drinking water, site: lung, lesion: one or several types, types not named, dosed 109 weeks, study length 109 weeks): 7230 mg/kg/day (inactive)
- carcinogen call (mouse, strain ICR/Jcl, males, in drinking water, site: any site (literature study), lesion: several types, types named in the paper, dosed 109 weeks, study length 109 weeks): negative (inactive)
- TD50 (mouse, strain ICR/Jcl, males, in drinking water, site: liver, lesion: one or several types, types not named, dosed 109 weeks, study length 109 weeks): 25000 mg/kg/day (inactive)
- TD50 (mouse, strain ICR/Jcl, males, in drinking water, site: lung, lesion: one or several types, types not named, dosed 109 weeks, study length 109 weeks): 16300 mg/kg/day (inactive)
- TD50 (mouse, strain Swiss CD-1, females, in drinking water, site: liver, lesion: hepatocellular tumor, dosed 34 weeks, study length 125 weeks): 744 mg/kg/day (inactive)
- carcinogen call (mouse, strain Swiss CD-1, females, in drinking water, site: lung, lesion: one or several types, types not named, dosed 34 weeks, study length 125 weeks): negative (inactive)
- carcinogen call (mouse, strain Swiss CD-1, males, in drinking water, site: liver, lesion: hepatocellular tumor, dosed 34 weeks, study length 115 weeks): negative (inactive)
- TD50 (mouse, strain Swiss CD-1, males, in drinking water, site: lung, lesion: one or several types, types not named, dosed 34 weeks, study length 115 weeks): 103 mg/kg/day (inactive)
- carcinogen call (mouse, strain VM, females, in drinking water, site: brain, lesion: glioma, dosed 134 weeks, study length 134 weeks): negative (inactive)
- carcinogen call (mouse, strain VM, males, in drinking water, site: brain, lesion: glioma, dosed 113 weeks, study length 113 weeks): negative (inactive)
- TD50 (rat, strain Charles River CD (Sprague-Dawley), both sexes, in feed, site: all sites, lesion: malignant lymphoma, dosed 123 weeks, study length 123 weeks): 539 mg/kg/day
- TD50 (rat, strain Charles River CD (Sprague-Dawley), both sexes, in feed, site: liver, lesion: angiosarcoma, dosed 123 weeks, study length 123 weeks): 5840 mg/kg/day
- TD50 (rat, strain Charles River CD (Sprague-Dawley), both sexes, in feed, site: spleen, lesion: lymphoma, dosed 123 weeks, study length 123 weeks): 601 mg/kg/day
- carcinogen call (rat, strain F344/DuCrj, males, in drinking water, site: forestomach, lesion: one or several types, types not named, dosed 51 weeks, study length 51 weeks): negative (inactive)
- carcinogen call (rat, strain F344/DuCrj, males, in drinking water, site: stomach, glandular, lesion: one or several types, types not named, dosed 51 weeks, study length 51 weeks): negative (inactive)
- TD50 (rat, strain Fischer 344, females, in drinking water, site: adrenal gland, lesion: medullary tumor, dosed 104 weeks, study length 128 weeks): 163 mg/kg/day
- TD50 (rat, strain Fischer 344, females, in drinking water, site: any site (literature study), lesion: several types, types named in the paper, dosed 104 weeks, study length 104 weeks): 74400 mg/kg/day (inactive)
- carcinogen call (rat, strain Fischer 344, females, in drinking water, site: any site (literature study), lesion: several types, types named in the paper, dosed 104 weeks, study length 120 weeks): negative (inactive)
- TD50 (rat, strain Fischer 344, females, in drinking water, site: liver, lesion: hepatocellular carcinoma, dosed 104 weeks, study length 128 weeks): 1550 mg/kg/day
- TD50 (rat, strain Fischer 344, females, in drinking water, site: liver, lesion: neoplastic nodule, dosed 104 weeks, study length 128 weeks): 185 mg/kg/day
- carcinogen call (rat, strain Fischer 344, females, in drinking water, site: liver, lesion: several types, types named in the paper, dosed 104 weeks, study length 120 weeks): negative (inactive)
- TD50 (rat, strain Fischer 344, females, in drinking water, site: liver, lesion: several types, types named in the paper, dosed 104 weeks, study length 128 weeks): 153 mg/kg/day
- TD50 (rat, strain Fischer 344, females, in drinking water, site: mammary tissue, wider than the gland, lesion: one or several types, types not named, dosed 104 weeks, study length 128 weeks): 115 mg/kg/day
- TD50 (rat, strain Fischer 344, females, in drinking water, site: thyroid gland, lesion: carcinoma, dosed 104 weeks, study length 128 weeks): 163 mg/kg/day
- TD50 (rat, strain Fischer 344, females, in drinking water, site: uterus, lesion: polyp, dosed 104 weeks, study length 128 weeks): 218 mg/kg/day
- carcinogen call (rat, strain Fischer 344, females, in feed, site: any site (literature study), lesion: several types, types named in the paper, dosed 52 weeks, study length 69 weeks): negative (inactive)
- TD50 (rat, strain Fischer 344, females, in feed, site: liver, lesion: carcinoma, dosed 104 weeks, study length 130 weeks): 470 mg/kg/day
- TD50 (rat, strain Fischer 344, females, in feed, site: liver, lesion: hepatocellular carcinoma, dosed 104 weeks, study length 128 weeks): 629 mg/kg/day
- TD50 (rat, strain Fischer 344, females, in feed, site: liver, lesion: hepatocellular carcinoma, dosed 104 weeks, study length 130 weeks): 516 mg/kg/day
- TD50 (rat, strain Fischer 344, females, in feed, site: liver, lesion: neoplastic nodule, dosed 104 weeks, study length 128 weeks): 164 mg/kg/day
- TD50 (rat, strain Fischer 344, females, in feed, site: liver, lesion: neoplastic nodule, dosed 104 weeks, study length 130 weeks): 199 mg/kg/day and 218 mg/kg/day
- carcinogen call (rat, strain Fischer 344, females, in feed, site: liver, lesion: one or several types, types not named, dosed 52 weeks, study length 69 weeks): negative (inactive)
- TD50 (rat, strain Fischer 344, females, in feed, site: liver, lesion: several types, types named in the paper, dosed 104 weeks, study length 128 weeks): 141 mg/kg/day
- TD50 (rat, strain Fischer 344, females, in feed, site: liver, lesion: several types, types named in the paper, dosed 104 weeks, study length 130 weeks): 124 mg/kg/day and 136 mg/kg/day
- carcinogen call (rat, strain Fischer 344, males, in drinking water, site: any site (literature study), lesion: several types, types named in the paper, dosed 104 weeks, study length 120 weeks): negative (inactive)
- TD50 (rat, strain Fischer 344, males, in drinking water, site: liver, lesion: hepatocellular adenoma + hepatoblastoma + hepatocellular carcinoma, dosed 104 weeks, study length 104 weeks): 6550 mg/kg/day
- TD50 (rat, strain Fischer 344, males, in drinking water, site: liver, lesion: hepatocellular carcinoma, dosed 104 weeks, study length 128 weeks): 1040 mg/kg/day
- TD50 (rat, strain Fischer 344, males, in drinking water, site: liver, lesion: several types, types named in the paper, dosed 104 weeks, study length 120 weeks): 1310 mg/kg/day (inactive)
- TD50 (rat, strain Fischer 344, males, in drinking water, site: liver, lesion: several types, types named in the paper, dosed 104 weeks, study length 128 weeks): 946 mg/kg/day
- TD50 (rat, strain Fischer 344, males, in drinking water, site: skin, lesion: fibroma, dosed 104 weeks, study length 104 weeks): 667 mg/kg/day (inactive)
- carcinogen call (rat, strain Fischer 344, males, in feed, site: all sites, lesion: granulocytic leukemia, dosed 115 weeks, study length 115 weeks): negative (inactive)
- carcinogen call (rat, strain Fischer 344, males, in feed, site: all sites, lesion: mononuclear-cell leukemia, dosed 115 weeks, study length 115 weeks): negative (inactive)
- carcinogen call (rat, strain Fischer 344, males, in feed, site: any site (literature study), lesion: one or several types, types not named, dosed 115 weeks, study length 115 weeks): negative (inactive)
- carcinogen call (rat, strain Fischer 344, males, in feed, site: any site (literature study), lesion: several types, types named in the paper, dosed 52 weeks, study length 69 weeks): negative (inactive)
- TD50 (rat, strain Fischer 344, males, in feed, site: liver, lesion: neoplastic nodule, dosed 104 weeks, study length 130 weeks): 467 mg/kg/day and 674 mg/kg/day
- carcinogen call (rat, strain Fischer 344, males, in feed, site: liver, lesion: one or several types, types not named, dosed 52 weeks, study length 69 weeks): negative (inactive)
- TD50 (rat, strain Fischer 344, males, in feed, site: liver, lesion: several types, types named in the paper, dosed 104 weeks, study length 130 weeks): 445 mg/kg/day and 641 mg/kg/day
- carcinogen call (rat, strain Fischer 344, males, in feed, site: several sites, sites named in the paper, lesion: lymphoma, dosed 115 weeks, study length 115 weeks): negative (inactive)
- carcinogen call (rat, strain Fischer 344, males, in feed, site: testis, lesion: interstitial-cell tumor, dosed 115 weeks, study length 115 weeks): negative (inactive)
- carcinogen call (rat, strain MRC, females, in drinking water, site: any site (literature study), lesion: one or several types, types not named, dosed 67 weeks, study length 122 weeks): negative (inactive)
- TD50 (rat, strain MRC, females, in drinking water, site: any site (literature study), lesion: several types, types named in the paper, dosed 84 weeks, study length 104 weeks): 57.3 mg/kg/day (inactive)
- carcinogen call (rat, strain MRC, females, in drinking water, site: liver, lesion: one or several types, types not named, dosed 67 weeks, study length 122 weeks): negative (inactive)
- carcinogen call (rat, strain MRC, males, in drinking water, site: any site (literature study), lesion: one or several types, types not named, dosed 67 weeks, study length 122 weeks): negative (inactive)
- TD50 (rat, strain MRC, males, in drinking water, site: any site (literature study), lesion: several types, types named in the paper, dosed 84 weeks, study length 104 weeks): 61.9 mg/kg/day (inactive)
- carcinogen call (rat, strain MRC, males, in drinking water, site: liver, lesion: one or several types, types not named, dosed 67 weeks, study length 122 weeks): negative (inactive)
- carcinogen call (rat, strain Wistar, males, in drinking water, site: liver, lesion: hepatocellular carcinoma, dosed 94 weeks, study length 94 weeks): negative (inactive)
- carcinogen call (rat, strain Wistar, males, in drinking water, site: liver, lesion: one or several types, types not named, dosed 102 weeks, study length 102 weeks): negative (inactive)
- carcinogen call (rat, strain Wistar, males, in drinking water, site: lung, lesion: one or several types, types not named, dosed 94 weeks, study length 94 weeks): negative (inactive)
- carcinogen call (rat, strain Wistar, males, in drinking water, site: nasal cavity, lesion: one or several types, types not named, dosed 94 weeks, study length 94 weeks): negative (inactive)
- TD50 (rat, strain Wistar, males, in feed, site: liver, lesion: several types, types named in the paper, dosed 92 weeks, study length 92 weeks): 155 mg/kg/day
